For 15 molecules, IC50, EC50 and GI50 results are on record in US20230027026A1, “FUSED PYRIMIDINE COMPOUNDS, COMPOSITIONS AND MEDICINAL APPLICATIONS THEREOF” (JUBILANT BIOSYS LIMITED, priority 2019, published 2023).

For one test, the target named is T1, EGFR (T790M/L858R) (Homo sapiens, UniProt P00533, L858R/T790M).
T1 construct: GST; purchased Proqinase
Description: EGFR L858R/T790M enzyme inhibition assay (HTRF). The class given is biochemical. To be noted: 5 μM ATP, 60 min, read-out: EGFR_L858R T790M_IC50_nM. The method in brief: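 HTRF kinase assay with 2.5 nM GST-EGFR T790M/L858R, 0.5 μM biotinylated gastrin peptide and 5 μM ATP in HEPES pH 7.4 with Mg/Mn, 60 min at room temperature; compounds from 10 μM top. Phosphotyrosine detected by Eu anti-pTyr/SA-APC; IC50 from % inhibition.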

Test [1] deals with H1975 cells (L858R_T790M mutant). Description: H1975 proliferation assay. In kind it is cell-based. The settings on record: Homo sapiens, NCI-H1975; read-out: Proliferation_Assay H1975 cells-EC50_nM L858R_T790M_mutant.
The next test has as its system A431 cells. As to the kind of experiment: Cellular proliferation (Alamar Blue) assay, A431. The class given is cell-based. To be noted: Homo sapiens, A-431; A431 cells, 72 hr, Alamar Blue; read-out: A431 IC50. The method in brief: (§1)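 Following a 16–18 h pre-incubation, cells received compound or DMSO for 72 h at 37 °C across a 10–0.0005 μM final range. Proliferation was then scored by Alamar Blue fluorescence (540 nm excitation, 590 nm emission) after 3 h.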

The target in test [2] is EGFR (A767_dupASV) expressing Ba/F3 stable cell line (Homo sapiens, UniProt P00533, DUP767-769, cells depend on it). Description: Cellular proliferation (Alamar Blue) assay, EGFR A767_dupASV Ba/F3. In kind it is cell-based. The settings on record: EGFR A767_dupASV Ba/F3, 72 hr, read-out: A767 IC50. In outline:
as §1

The target in test [3] is EGFR(D770_N771insSVD) expressing Ba/F3 stable cell line (Homo sapiens, UniProt P00533, DUP768-770, cells depend on it). Description: Cellular proliferation (Alamar Blue) assay, EGFR D770_N771insSVD Ba/F3. In kind it is cell-based. To be noted: EGFR D770_N771insSVD Ba/F3, 72 hr, read-out: D770 IC50. In outline: as §1
The target of test [4] is HER2 (A775_G776insYVMA) expressing Ba/F3 stable cell line (Homo sapiens, UniProt P04626, DUP772-775, cells depend on it). As to the kind of experiment: Cellular proliferation (Alamar Blue) assay, HER2 YVMA Ba/F3. The class given is cell-based. The settings on record: HER2 A775_G776insYVMA Ba/F3, 72 hr, read-out: YVMA IC50. The method in brief:
as §1

Structures are written as SMILES. pEC50, pIC50: −log10 of the molar value.

Chain of HER2 (A775_G776insYVMA) expressing Ba/F3 stable cell line (P04626 with tags, fused parts or gaps DUP772-775): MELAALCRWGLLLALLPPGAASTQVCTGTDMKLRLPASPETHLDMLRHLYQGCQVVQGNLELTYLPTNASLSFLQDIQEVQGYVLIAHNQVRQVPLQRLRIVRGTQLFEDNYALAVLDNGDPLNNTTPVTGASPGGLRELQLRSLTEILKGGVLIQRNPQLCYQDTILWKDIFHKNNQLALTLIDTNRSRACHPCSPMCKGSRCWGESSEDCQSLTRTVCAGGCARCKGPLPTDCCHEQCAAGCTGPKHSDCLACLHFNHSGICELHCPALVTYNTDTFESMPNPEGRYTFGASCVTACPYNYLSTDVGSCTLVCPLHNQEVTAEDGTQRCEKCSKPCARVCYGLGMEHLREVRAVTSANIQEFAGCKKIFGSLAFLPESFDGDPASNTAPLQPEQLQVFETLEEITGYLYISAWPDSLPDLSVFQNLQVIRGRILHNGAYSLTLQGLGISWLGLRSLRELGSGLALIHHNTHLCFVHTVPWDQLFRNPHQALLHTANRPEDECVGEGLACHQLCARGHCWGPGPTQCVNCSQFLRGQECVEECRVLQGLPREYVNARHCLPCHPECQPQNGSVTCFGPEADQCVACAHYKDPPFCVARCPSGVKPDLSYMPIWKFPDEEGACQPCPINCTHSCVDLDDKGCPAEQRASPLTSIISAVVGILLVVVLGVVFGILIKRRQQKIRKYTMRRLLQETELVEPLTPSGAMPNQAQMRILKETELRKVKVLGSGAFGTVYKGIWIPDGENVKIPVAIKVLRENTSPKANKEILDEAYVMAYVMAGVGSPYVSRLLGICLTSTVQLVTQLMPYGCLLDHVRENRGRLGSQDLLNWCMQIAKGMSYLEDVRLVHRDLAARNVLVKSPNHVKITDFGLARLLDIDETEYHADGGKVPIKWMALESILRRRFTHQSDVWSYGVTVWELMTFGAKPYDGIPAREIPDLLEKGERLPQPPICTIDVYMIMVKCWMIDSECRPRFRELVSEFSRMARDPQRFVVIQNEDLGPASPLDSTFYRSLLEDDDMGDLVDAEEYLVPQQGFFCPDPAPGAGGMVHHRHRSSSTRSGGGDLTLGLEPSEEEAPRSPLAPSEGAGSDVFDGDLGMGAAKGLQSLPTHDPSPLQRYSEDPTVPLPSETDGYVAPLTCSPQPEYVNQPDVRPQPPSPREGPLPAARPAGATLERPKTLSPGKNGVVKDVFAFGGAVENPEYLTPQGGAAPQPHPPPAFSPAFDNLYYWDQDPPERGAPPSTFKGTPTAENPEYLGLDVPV
T1 sequence (P00533 25-1210 T790M/L858R): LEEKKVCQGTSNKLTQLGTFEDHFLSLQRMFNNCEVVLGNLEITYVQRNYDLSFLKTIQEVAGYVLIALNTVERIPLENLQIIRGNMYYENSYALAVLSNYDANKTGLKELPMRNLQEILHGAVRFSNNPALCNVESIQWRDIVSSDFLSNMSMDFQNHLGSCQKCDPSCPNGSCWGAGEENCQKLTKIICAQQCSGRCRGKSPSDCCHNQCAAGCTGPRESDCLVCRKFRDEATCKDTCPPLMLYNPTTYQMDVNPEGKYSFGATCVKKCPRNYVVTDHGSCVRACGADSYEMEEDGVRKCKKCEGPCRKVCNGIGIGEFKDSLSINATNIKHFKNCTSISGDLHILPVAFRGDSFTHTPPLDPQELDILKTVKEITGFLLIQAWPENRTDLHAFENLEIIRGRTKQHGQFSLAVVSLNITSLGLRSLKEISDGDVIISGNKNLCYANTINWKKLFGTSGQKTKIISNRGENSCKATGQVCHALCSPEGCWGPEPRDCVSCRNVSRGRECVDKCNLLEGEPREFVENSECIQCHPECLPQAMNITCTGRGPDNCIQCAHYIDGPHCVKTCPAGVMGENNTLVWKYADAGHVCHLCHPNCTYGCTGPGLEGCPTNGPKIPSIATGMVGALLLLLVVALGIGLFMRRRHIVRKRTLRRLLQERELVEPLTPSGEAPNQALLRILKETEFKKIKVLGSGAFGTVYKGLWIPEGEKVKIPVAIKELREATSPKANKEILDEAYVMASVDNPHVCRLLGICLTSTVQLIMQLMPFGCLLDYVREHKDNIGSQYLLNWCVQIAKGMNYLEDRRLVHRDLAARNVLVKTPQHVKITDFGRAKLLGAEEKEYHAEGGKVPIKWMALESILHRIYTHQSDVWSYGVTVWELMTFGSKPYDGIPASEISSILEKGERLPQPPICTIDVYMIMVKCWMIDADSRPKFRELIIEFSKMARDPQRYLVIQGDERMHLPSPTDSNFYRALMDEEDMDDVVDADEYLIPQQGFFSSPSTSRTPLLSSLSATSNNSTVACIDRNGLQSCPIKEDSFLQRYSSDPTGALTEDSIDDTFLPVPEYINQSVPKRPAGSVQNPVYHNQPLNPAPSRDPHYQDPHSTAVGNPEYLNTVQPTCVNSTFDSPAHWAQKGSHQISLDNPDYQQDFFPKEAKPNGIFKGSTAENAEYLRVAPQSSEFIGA
Chain of EGFR(D770_N771insSVD) expressing Ba/F3 stable cell line (P00533 with tags, fused parts or gaps DUP768-770): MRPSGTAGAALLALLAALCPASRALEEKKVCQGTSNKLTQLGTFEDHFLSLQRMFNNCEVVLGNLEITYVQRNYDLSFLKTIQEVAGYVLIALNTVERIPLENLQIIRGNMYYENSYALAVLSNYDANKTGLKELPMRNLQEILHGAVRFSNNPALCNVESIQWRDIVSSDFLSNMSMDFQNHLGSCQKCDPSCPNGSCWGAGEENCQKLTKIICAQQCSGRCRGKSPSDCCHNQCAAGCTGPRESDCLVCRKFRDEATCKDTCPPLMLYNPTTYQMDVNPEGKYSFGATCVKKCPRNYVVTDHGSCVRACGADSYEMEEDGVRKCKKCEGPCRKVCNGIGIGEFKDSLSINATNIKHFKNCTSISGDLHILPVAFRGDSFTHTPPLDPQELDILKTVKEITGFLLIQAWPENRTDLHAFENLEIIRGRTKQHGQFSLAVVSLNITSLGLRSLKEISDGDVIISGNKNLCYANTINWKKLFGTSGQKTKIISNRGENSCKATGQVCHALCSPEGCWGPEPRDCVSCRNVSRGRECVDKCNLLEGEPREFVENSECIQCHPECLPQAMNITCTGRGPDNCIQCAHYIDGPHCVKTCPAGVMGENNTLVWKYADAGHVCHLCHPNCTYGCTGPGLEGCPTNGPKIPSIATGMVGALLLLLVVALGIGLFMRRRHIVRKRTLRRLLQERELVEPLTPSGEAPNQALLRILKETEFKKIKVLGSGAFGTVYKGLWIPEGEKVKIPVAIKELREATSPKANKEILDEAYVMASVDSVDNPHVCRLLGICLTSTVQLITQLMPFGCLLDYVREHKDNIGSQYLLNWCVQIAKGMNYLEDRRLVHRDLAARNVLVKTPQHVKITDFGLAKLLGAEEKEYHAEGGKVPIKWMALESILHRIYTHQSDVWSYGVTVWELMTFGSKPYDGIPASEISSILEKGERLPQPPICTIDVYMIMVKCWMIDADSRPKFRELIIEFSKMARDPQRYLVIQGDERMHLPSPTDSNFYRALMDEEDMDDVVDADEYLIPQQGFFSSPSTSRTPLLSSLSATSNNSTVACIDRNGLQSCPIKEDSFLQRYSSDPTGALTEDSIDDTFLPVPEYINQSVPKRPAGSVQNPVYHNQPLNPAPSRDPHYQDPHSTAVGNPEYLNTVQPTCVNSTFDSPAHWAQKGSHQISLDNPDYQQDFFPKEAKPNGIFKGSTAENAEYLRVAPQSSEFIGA
Chain of EGFR (A767_dupASV) expressing Ba/F3 stable cell line (P00533 with tags, fused parts or gaps DUP767-769): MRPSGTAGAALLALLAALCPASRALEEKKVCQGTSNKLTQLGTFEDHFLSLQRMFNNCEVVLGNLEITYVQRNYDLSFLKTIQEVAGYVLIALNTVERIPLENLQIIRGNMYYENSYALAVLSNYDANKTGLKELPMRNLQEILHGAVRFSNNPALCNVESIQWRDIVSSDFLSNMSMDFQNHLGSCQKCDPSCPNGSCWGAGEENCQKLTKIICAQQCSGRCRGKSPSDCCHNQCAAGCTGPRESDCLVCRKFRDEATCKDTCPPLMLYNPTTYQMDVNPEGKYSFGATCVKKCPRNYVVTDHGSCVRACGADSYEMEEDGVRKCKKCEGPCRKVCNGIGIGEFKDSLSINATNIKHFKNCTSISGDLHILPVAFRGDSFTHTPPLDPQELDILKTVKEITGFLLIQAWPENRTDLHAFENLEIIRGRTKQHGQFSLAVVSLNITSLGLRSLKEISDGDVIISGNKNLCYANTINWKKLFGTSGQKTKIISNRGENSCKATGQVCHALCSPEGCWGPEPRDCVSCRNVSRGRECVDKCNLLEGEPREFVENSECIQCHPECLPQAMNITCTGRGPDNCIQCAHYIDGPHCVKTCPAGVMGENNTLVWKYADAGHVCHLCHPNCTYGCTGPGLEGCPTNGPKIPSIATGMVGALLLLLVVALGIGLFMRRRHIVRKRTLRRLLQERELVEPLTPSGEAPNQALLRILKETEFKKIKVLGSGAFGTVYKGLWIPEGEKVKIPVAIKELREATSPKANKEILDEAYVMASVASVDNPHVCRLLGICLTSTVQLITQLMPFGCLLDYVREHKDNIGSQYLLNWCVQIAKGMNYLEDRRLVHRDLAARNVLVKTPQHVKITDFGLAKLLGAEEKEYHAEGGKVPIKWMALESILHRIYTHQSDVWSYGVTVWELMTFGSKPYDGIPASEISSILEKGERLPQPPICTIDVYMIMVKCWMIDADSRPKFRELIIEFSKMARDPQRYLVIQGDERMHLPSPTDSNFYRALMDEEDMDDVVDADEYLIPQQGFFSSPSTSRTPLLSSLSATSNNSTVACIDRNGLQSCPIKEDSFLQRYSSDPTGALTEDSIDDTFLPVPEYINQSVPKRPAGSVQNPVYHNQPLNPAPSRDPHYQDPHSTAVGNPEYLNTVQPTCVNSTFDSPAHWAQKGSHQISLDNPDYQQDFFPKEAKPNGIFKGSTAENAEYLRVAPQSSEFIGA

For the molecule `C=CC(=O)Nc1cccc(N2C(=O)N(Cc3ccccc3)Cc3cnc(Nc4ccc(N5CCOCC5)nc4)nc32)c1` [Compound 46, N-(3-(3-benzyl-7-((6-morpholinopyridin-3-yl)amino)-2-oxo-3,4-dihydropyrimido[4,5-d]pyrimidin-1(2H)-yl)phenyl)acrylamide], the pIC50 at EGFR (T790M/L858R) was 8.59; in the test with A431 cells, 5.77. Besides, the pEC50 in test [1] was 8.43. Also, the GI50 in test [2] came out at 14 nM; in test [3] it was 16 nM; in test [4] it was 67 nM.
`C=CC(=O)Nc1cccc(N2C(=O)N(Cc3ccccc3)Cc3cnc(Nc4cn(CC(F)(F)F)nc4C)nc32)c1` [Compound 6, N-(3-(3-benzyl-7-((3-methyl-1-(2,2,2-trifluoroethyl)-1H-pyrazol-4-yl)amino)-2-oxo-3,4-dihydropyrimido[4,5-d]pyrimidin-1(2H)-yl)phenyl)acrylamide]: the pIC50 at EGFR (T790M/L858R) is 9.00; with A431 cells, 5.72. In addition, in test [1], the pEC50 is 8.09. For the same molecule, the GI50 in test [2] was found to be 9 nM; in test [3] it was 9 nM; in test [4], 11 nM.
On to `CN(C)C/C=C/C(=O)Nc1cccc(N2C(=O)N(c3ccccc3)Cc3cnc(Nc4cn(C)nc4Cl)nc32)c1` [Compound 35, (E)-N-(3-(7-((3-chloro-1-methyl-1H-pyrazol-4-yl)amino)-2-oxo-3-phenyl-3,4-dihydropyrimido[4,5-d]pyrimidin-1(2H)-yl)phenyl)-4-(dimethylamino)but-2-enamide], for which the pIC50 on EGFR (T790M/L858R) was 8.11; with A431 cells, 5.66. Moreover, the pEC50 in test [1] was 7.10. Moreover, the GI50 in test [2] was found to be 12 nM; in test [3], 55 nM; in test [4] it was 154 nM.
In the case of `C=CC(=O)Nc1cccc(N2C(=O)N(Cc3ccccc3)Cc3cnc(Nc4cnn(CCOC)c4)nc32)c1` [Compound 15, N-(3-(3-benzyl-7-((1-(2-methoxyethyl)-1H-pyrazol-4-yl)amino)-2-oxo-3,4-dihydropyrimido[4,5-d]pyrimidin-1(2H)-yl)phenyl)acrylamide], the pIC50 at EGFR (T790M/L858R) is 8.70; in the test with A431 cells, 7.11. In test [1], the pEC50 was 8.74. Moreover, the figures for the GI50 in test [2], in test [3] and in test [4] were 10 nM, 6 nM and 23 nM, respectively.
`CC(C)n1cc(Nc2ncc3c(n2)N(c2cccc(NC(=O)/C=C/CN(C)C)c2)C(=O)N(Cc2ccccc2)C3)cn1` [Compound 9, (E)-N-(3-(3-benzyl-7-((1-isopropyl-1H-pyrazol-4-yl)amino)-2-oxo-3,4-dihydropyrimido[4,5-d]pyrimidin-1(2H)-yl)phenyl)-4-(dimethylamino)but-2-enamide]: the results for the pIC50 on EGFR (T790M/L858R) and in the test on A431 cells were 8.40 and 5.16, respectively. Also, the pEC50 in test [1] is 7.75. Further, the GI50 in test [2] was determined as 103 nM; in test [3] it was 114 nM; in test [4], 38 nM.
For `Cc1cc(Nc2ncc3c(n2)N(c2cccc(NC(=O)/C=C/CN(C)C)c2)C(=O)N(Cc2ccccc2)C3)sn1` [Compound 22, (E)-N-(3-(3-benzyl-7-((3-methylisothiazol-5-yl)amino)-2-oxo-3,4-dihydropyrimido[4,5-d]pyrimidin-1(2H)-yl)phenyl)-4-(dimethylamino)but-2-enamide], the pIC50 is 8.15 at EGFR (T790M/L858R) and 7.34 in the test on A431 cells. The pEC50 in test [1] is 8.00. Besides, the GI50 in test [2] came to 121 nM; in test [3], 278 nM.
For `Cc1c(Nc2ncc3c(n2)N(c2cccc(NC(=O)/C=C/CN(C)C)c2)C(=O)N(Cc2ccccc2)C3)cnn1C` [Compound 11, (E)-N-(3-(3-benzyl-7-((1,5-dimethyl-1H-pyrazol-4-yl)amino)-2-oxo-3,4-dihydropyrimido[4,5-d]pyrimidin-1(2H)-yl)phenyl)-4-(dimethylamino)but-2-enamide], in that order: 8.70, 5.77, 8.02, 1150 nM and 2430 nM.
As for `CN(C)C/C=C/C(=O)Nc1cccc(N2C(=O)N(Cc3ccccc3)Cc3cnc(Nc4cnn(C)c4)nc32)c1` [Compound 49, (E)-N-(3-(3-benzyl-7-((1-methyl-1H-pyrazol-4-yl)amino)-2-oxo-3,4-dihydropyrimido[4,5-d]pyrimidin-1(2H)-yl)phenyl)-4-(dimethylamino)but-2-enamide], the figures for the pIC50 at EGFR (T790M/L858R) and in the test with A431 cells were 9.22 and at most 5.00, respectively. Further, in test [1], the pEC50 is 8.68. Also, the GI50 in test [2] stood at 351 nM; in test [3], 476 nM; in test [4] it was 178 nM.
In the case of `C=CC(=O)Nc1cccc(N2C(=O)N(Cc3ccccc3)Cc3cnc(Nc4nc(C)cs4)nc32)c1` [Compound 25, N-(3-(3-benzyl-7-((4-methylthiazol-2-yl)amino)-2-oxo-3,4-dihydropyrimido[4,5-d]pyrimidin-1(2H)-yl)phenyl)acrylamide], the pIC50 at EGFR (T790M/L858R) was 8.52; in the test on A431 cells, 7.08. Further, in test [1], the pEC50 was 7.54. The GI50 is 320 nM in test [2] and 69 nM in test [3].
Take `CN(C)C/C=C/C(=O)Nc1cccc(N2C(=O)N(Cc3ccc(F)cc3)Cc3cnc(Nc4cnn(C)c4)nc32)c1` [Compound 2, (E)-4-(dimethylamino)-N-(3-(3-(4-fluorobenzyl)-7-((1-methyl-1H-pyrazol-4-yl)amino)-2-oxo-3,4-dihydropyrimido[4,5-d]pyrimidin-1(2H)-yl)phenyl)but-2-enamide]: the pIC50 at EGFR (T790M/L858R) is 8.70; in the test with A431 cells, 6.21. Moreover, the pEC50 in test [1] is 7.71. The GI50 came out at 414 nM in test [2] and 893 nM in test [3].
The matching figures for `C=CC(=O)N1CC[C@H](N2C(=O)N(Cc3ccccc3)Cc3cnc(Nc4cn(C)nc4Cl)nc32)C1` (single isomer, unassigned) [Compound 39]: 6.95, at most 5.00, 6.20, at least 10000 nM and 9350 nM.
As to `C=CC(=O)Nc1cccc(N2C(=O)N(Cc3ccccc3)Cc3cnc(Nc4cnn(CCO)c4)nc32)c1` [Compound 13, N-(3-(3-benzyl-7-((1-(2-hydroxyethyl)-1H-pyrazol-4-yl)amino)-2-oxo-3,4-dihydropyrimido[4,5-d]pyrimidin-1(2H)-yl)phenyl)acrylamide], the pIC50 on EGFR (T790M/L858R) was 9.00; with A431 cells it was 7.23. Also, in test [1], the pEC50 is 8.82. Also, the GI50 in test [2] is 45 nM; in test [3], 42 nM.
For `CN(C)C/C=C/C(=O)Nc1cccc(N2C(=O)N(Cc3ccccc3)Cc3cnc(Nc4ccc5cnn(C)c5c4)nc32)c1` [Compound 45, (E)-N-(3-(3-benzyl-7-((1-methyl-1H-indazol-6-yl)amino)-2-oxo-3,4-dihydropyrimido[4,5-d]pyrimidin-1(2H)-yl)phenyl)-4-(dimethylamino)but-2-enamide], in that order: 7.96, 5.95, 7.33, 352 nM and 350 nM.
The matching figures for `CN(C)C/C=C/C(=O)Nc1cccc(N2C(=O)N(Cc3ccccc3)Cc3cnc(Nc4cnn(CC(F)(F)F)c4)nc32)c1` [Compound 12, (E)-N-(3-(3-benzyl-2-oxo-7-((1-(2,2,2-trifluoroethyl)-1H-pyrazol-4-yl)amino)-3,4-dihydropyrimido[4,5-d]pyrimidin-1(2H)-yl)phenyl)-4-(dimethylamino)but-2-enamide]: 8.52, 5.91, 8.18, 106 nM and 134 nM.
The matching figures for `CN(C)C/C=C/C(=O)Nc1cccc(N2C(=O)N(c3ccc(F)cc3)Cc3cnc(Nc4cnn(C)c4)nc32)c1` [Compound 18, (E)-4-(dimethylamino)-N-(3-(3-(4-fluorophenyl)-7-((1-methyl-1H-pyrazol-4-yl)amino)-2-oxo-3,4-dihydropyrimido[4,5-d]pyrimidin-1(2H)-yl)phenyl)but-2-enamide]: 8.60, 6.48, 7.47, 421 nM and 1100 nM.
